From ChEMBL document CHEMBL1121827, “Showdomycin analogues: synthesis and antitumor evaluation” (J Med Chem, 1981)

Legend:
[1] = In vivo antitumor activity expressed as lethal dose with daily administration schedule against P388 murine leukemia cells; assay type: ADME, organism-based; conditions: mouse
L1210 [2] = assay: Cytotoxicity inhibition against cultured L1210 cells at 400 uM; assay type: functional; conditions: Mus musculus
L1210 [3] = assay: Cytotoxicity inhibition against cultured L1210 cells at 200 uM; assay type: functional; conditions: Mus musculus

Row | Compound | LD50 [1] [mg/kg] | inhibition at 400 µM (L1210 [2]) [%] | inhibition at 200 µM (L1210 [3]) [%]
1 | CC(=O)OC[C@H]1O[C@@H](N2C(=O)C=CC2=O)[C@H](OC(C)=O)[C@@H]1OC(C)=O | 10 | – | –
2 | O=C1C=C(Cl)C(=O)N1C1O[C@H](CO)[C@@H](O)[C@H]1O (stereo partly specified) | 18 | – | –
3 | CC1=CC(=O)N(C2O[C@H](CO)[C@@H](O)[C@H]2O)C1=O (stereo partly specified) | 100 | 85 | 95
4 | O=C1C=CC(=O)N1C1O[C@H](CO)[C@@H](O)[C@H]1O (stereo partly specified) | 35 | – | –
